A short description of one series: Solubility in pure water. In kind it is physicochemical. The note with it: pure water, 18 °C, water, thermodynamic from solid. As to the method: A measured amount of Dex-Vi was partially dissolved in pure water. The solution was then centrifuged. The supernatant was decanted, and the volume was measured. The remainder of the solid was dried in a vacuum oven and weighed. Finally, the weight of the remaining Dex-Vi was subtracted from the initial added mass to obtain the amount dissolved in the supernatant, permitting calculation of the maximum soluble concentration.

The nature of series [1]: Membrane permeability in H-cell. In kind it is physicochemical. As to conditions: Selemion DSV membrane. Here is the method:
0.33 M Dex-Vi in pure water was separated by an anion-exchange membrane (DSV) from 1 M NaCl in an H-cell. […] The cell was agitated on a shaker to partially simulate flow dynamics. Aliquots of the receiving end (1 M NaCl side) were taken every few days, and the removed volume was replaced with 1 M NaCl. The concentration of Dex-Vi in the aliquot was determined by measuring the absorbance at 285 nm using a UV-Vis spectrophotometer. The concentration as a function of time data was then used to calculate the permeability constant of Dex-Vi. (Kwabi, D. G. et al., Joule 2018, 2, 1894-1906)
Permeability was calculated using Eqn. 4 which follows Fick's Law, where P is the permeability in cm^2·s^−1, A is the membrane area in cm^2, t is elapsed time in seconds, Ct is the concentration (mol·cm^−3) of Dex-Vi on the receiving side at time t, C0 is the initial concentration of Dex-Vi on the donating side, Vo is the volume of one side of the H-cell, and l is the membrane thickness in cm.

The nature of series [2]: Symmetric, volumetrically-unbalanced flow cell cycling. The note with it: sixteen days (150 cycles) continuous charge-discharge, N2 glovebox, first redox process. As to the method:
The RFB measurements were carried out in a custom-made zero-gap device previously reported by Li et al. (Li, W. et al., Chem 2018, 4 (11), 2644-2657; and Li, W. et al., Adv. Energy Mater. 2019, 9 (31), 1900918.) Both symmetric flow cell and RFB full cell measurements were conducted using a Bio-Logic SP-200 potentiostat at room temperature (˜20° C.). In symmetric cells, 0.1 M of active species in 1 M NaCl (pre-charged to 50% SOC of the first electron reduction using FcNCl as the counter cathode in bulk electrolysis) was utilized on both sides with the capacity limiting side (CLS) consisting of 5 mL of solution and the non-capacity limiting side (NCLS) consisting of 10 mL of solution separated by a Selemion AMV anion-exchange membrane (Asahi Glass Co.). The neat Dex-Vi full RFB cell cycling was performed using the product from the Dex-Vi synthesis directly without any purification. The neat product was diluted to roughly 0.1 M to pair with a 0.2 M BTMAP-Fc counter catholyte in excess capacity separated by an AMV membrane. Both the anolyte and catholyte were 5 mL in total volume with 0.5 M NaCl supporting electrolyte. […]

Read-outs that look alike come from different tables or passages of the source.

By solubility is commonly meant how much of the substance goes into solution per volume.

For the compound `C[N+](C)(C)CC(O)C[n+]1ccc(-c2cc[n+](CC(O)C[N+](C)(C)C)cc2)cc1` (stereo not shown) [Dex-Vi, bis(3-trimethylammonio-2-hydroxy)propyl viologen tetrachloride], the solubility in “Solubility in pure water” (Example 2, read-out: Water Solubility) was 1800 mM; in “Solubility in pure water” (room temperature (~18° C.), read-out: maximum solubility), roughly 2000 mM. In series [1], the permeance was 2.3×10^−11 cm^2·s^−1. The “decay in symmetric flow cell” value in series [2] is “no decay”.

The values above are taken from patent US12291513B2, “Pyridinium derivatives made by hydrothermal synthesis for use as anolytes in electrochemical cells” (Wisconsin Alumni Research Foundation, priority 2021, dated 2025).
